Experimental data taken from patent US4223041A, “Urea derivatives to treat anxiety and aggressivity” (Labaz, priority 1976, dated 1980).

Experiments:
[1] = Action on the pentylenetetrazole-induced seizure (anticonvulsant activity); type: in vivo, mouse; settings: Mus musculus, 3 h; 320 mg/kg oral, mice, 15 min before 125 mg/kg pentylenetetrazole; read-out: % of protection against death
Experimental: The purpose of this test which is carried out on mice is to determine whether the compounds of the invention, when given preventively by oral route, are capable at certain doses of protecting some of the animals against the epileptic seizure produced by a predetermined dose of pentylenetetrazole which would be 100% fatal in the absence of the compound.
The compound to be studied was administered fifteen minutes before an injection of 125 mg/kg of pentylenetetrazole and note was taken of the number of deaths occurring during the three hours following this injection. The results were expressed in percentage of protection of the animals against death at the dose studied.

[2] = Aggressivity of the isolated mouse (antiaggressive activity); type: in vivo
From the text: If a male mouse is isolated in a cage for three to four weeks, it will spontaneously attack any other animal of the same species which is placed in the same cage.
Mice wer isolated for the period of time required to render them spontaneously aggressive. Two mice, one rendered aggressive and one in a normal non-aggressive state, were then placed together and note was taken of the number of attacks by the aggressive mouse which occurred over a period of three minutes.
Each batch was composed of five pairs of animals.
The aggressive animals of each batch were then treated by oral route with the compound to be studied which was administered in such a way that the aggressive animals of each batch received a higher dose than those of the preceding batch.
Thirty minutes after administration, the couples were placed together again for a further three minutes and the number of attacks noted.

[3] = traction test (balance, muscular tonus and strength); settings: mouse, in vivo; oral, mice, 60 minutes after administration; read-out: ED50 (dose which causes 50% failures in the traction test)
[4] = mouse, in vivo, po, 1000 mg/kg
From the text: Finally, the hypnotic action of Compound A was studied in mice by means of the test of the posture reflex, the animals being kept under observation during the four hours following the oral administration of the product.

[5] = "Electrically-provoked combat" test (anxiolytic action); type: in vivo, mouse; settings: mice
From the text: Under certain conditions, a pair of mice reacts to an electric stimulus by a series of combats which are provoked by the anxiety felt by the animals as a result of the electric shock. This anxiety is expressed by a combat with the other animal which is rendered responsible. For this reason, the test described hereunder can be considered as a means of evaluating the anxiolytic action of a compound. Two mice which have been previously on a diet consisting only of water are placed together in a cage. They are then submitted to a series of electric impulses of an intensity varying between 40 and 80 volts according to the sensitivity of the animals. The test is first carried out with untreated animals as controls and then with the same animals treated 30 minutes before the test with a dose of the compound to be studied.
Note is taken on the number of combats engaged. The results are expressed in percentage of decrease in the number of combats engaged by the treated animals in comparison with the number of combats registered before treatment.

[6] = Acute toxicity in rats; settings: rat, in vivo
[7] = Acute toxicity in mice; settings: mouse, in vivo
Experimental: Acute toxicity was determined on Swiss E.O.P.S. mice, by oral route, using the technique of LITCHFIELD and WILCOXON (J. Pharmacol. Exp. Ther. […], 96, 99).

[8] = Effects on α- and β-adrenergic effects provoked by epinephrine; type: in vivo, rat; settings: 200 mg/kg i.p.
[9] = Anxiolytic and antiaggressive properties and separation from sedation (general statements); settings: in vivo
[10] = rota rod test (neurotoxicity); type: in vivo, mouse; settings: for % of failures in rota rod test: mice, 30 min after administration
Experimental: The test used was that known as the rota rod test described by BOISSIER (Therapie 1958 XIII pp. 1074-1118).
This test aims at determining the ability of mice to coordinate their movements by seeing to what extent they can remain on a roller turning at a rate of 4 revolutions per minute for two minutes. The trial was carried out thirty minutes after administration by oral route of the compound to be studied and the percentage of failures was noted.
The value of this test is twofold. Failure on the part of the animals gives a very early indication of the slightest damage to the meuromuscular functions which cannot be discerned by any other means. Secondly, this test serves as an element of comparison for drawing up index figures involving the results obtained with other tests.

[11] = Action on the cardiovascular and respiratory system; type: in vivo, rat
[12] = Four plates test (anxiolytic action); type: in vivo, mouse
From the text: This test, which is specific to the anxiolytics, was undertaken with the mouse, thirty minutes after the oral administration of the compound to be studied.
It consists in placing mice in a box with fairly high walls, of which the bottom comprises four square plates. These plates, which all have the same dimensions, are separated from each other by a central axis and are alternately electrified by the positive and negative poles of a source of electric current. There is a space of a few millimeters between adjacent plates.
The mouse placed in this apparatus explores it and thus passes over the different plates in succession. Note is taken of the number of times each animal passes over the plates during one minute. When the current is switched on, the mouse passing over the plates receives an electric shock (80 V), which provokes a gradual decrease in the exploratory movements, and finally brings the animals to a complete stop.
Anxiolytic agents enable the animals to become more or less indifferent to the electric shock.
The percentage of protection against anxiety given by compounds of the invention was calculated by comparing the number of times the control animals passed over the plates when electrified with the number of times the treated animals passed over the electrified plates.

[13] = Influence on acetylcholine-induced hypotension and bradycardia; type: in vivo; settings: 100 mg/kg i.p., rat
Experimental: Similarly, at a dose of 100 mg/kg by intraperitoneal route, the preferred compound of the invention has no influence on acetylcholine-induced hypotension and bradycardia in the rat.

[14] = 3000 mg/kg oral, 8-day observation, read-out: deaths
[15] = 100 and 200 mg/kg i.p., anaesthetized rat

## CCCC(CCC)(CCC)NC(N)=O [Compound A, 1-(1,1-Di-n-propyl-n-butyl)-urea]
[1]
  responders at 320 mg/kg: 50%
[2]; 100 mg/kg oral
  sedative effects at antiaggressive dose: entirely devoid of any sedative effects
[2]; 0.5 h, oral, isolated mouse, 30 min after administration, read-out: ED50 (50% fewer attacks)
  ED50: 142 mg/kg
[2]; 0.5 h, oral, isolated mouse, read-out: dose from which antiaggressive action is exerted
  minimal effective dose: 100 mg/kg
[3]
  TD50 at 1 h: 600 mg/kg
[4]
  loss of the posture reflex: no loss of the posture reflex
[5]; Mus musculus, 0.5 h, 58 mg/kg, 30 min before test, read-out: % of decrease in number of combats
  inhibition in vivo at 58 mg/kg: 50%
[5]; without action on spontaneous motoricity
  decrease in number of combats obtainable without altering spontaneous motoricity: 80%
[6]; [14]
  mortality at 192 h: 10%
[6]; oral
  LD50 at 192 h: > 3000 mg/kg
[7]; [14]
  mortality at 192 h: 5%
[7]; oral
  LD50: > 3000 mg/kg
[8]
  α-adrenergic effects provoked by epinephrine: does not modify
  β-adrenergic effects provoked by epinephrine: does not modify
[9]
  anxiolytic and antiaggressive activity (in words): most outstanding anxiolytic and antiaggressive properties
[10]; 175 mg/kg oral
  % of failures in rota rod test: 0%
[10]; 600 mg/kg oral
  % of failures in rota rod test: 30%
[10]; at ED25 of four plates test
  sedative effect relative to reference products: least sedative
[10]; at the dose which provokes a 60%-decrease in the number of combats
  failures in the rota rod test: no failure
[10]; comparison at 25%-protection dose of four plates test, 175 mg/kg
  Rota rod (% of failures): 0%
[11]; [15]
  cardiac frequency: does not modify
  respiratory frequency: does not modify
  systemic arterial blood pressure: does not modify
[11]; rat, in vivo
  action on the cardiovascular or respiratory system: no appreciable action
[12]; 0.5 h, 175 mg/kg oral, mouse, 30 min after administration, read-out: % of protection against anxiety
  inhibition in vivo at 175 mg/kg: 25%
[12]; at ED25 of four plates test
  positive result in four plates test without sedative effect: without any sedative effect
[13]
  influence on acetylcholine-induced bradycardia: no influence
  influence on acetylcholine-induced hypotension: no influence
